In patent US9242987B2, “Heterocyclyl pyrazolopyrimidine analogues as JAK inhibitors” (Cellzome Limited, priority 2009, dated 2016):
pIC50: −log10 of the molar value.

Experiments:
[1] = biological target: T1, JAK2 (Homo sapiens, UniProt O60674); assay: Kinobeads assay, JAK2; assay type: binding; settings: mixed Molt4/Ramos cell lysate, dot blot detection
T1 construct: endogenous in cells; host or cells: Mixed Molt4/Ramos lysate (1:2)
Procedure, shortened: (§1)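 Lysate from Molt4 and Ramos cells combined 1:2 at 10 mg/mL total protein met test compound and an aminopyrido-pyrimidine affinity matrix for 3 h in the cold. Captured JAK2 and JAK3, after elution, were measured by specific-antibody dot blot on an infrared system; dose-response curves yielded IC50.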

[2] = biological target: T2, JAK3 (Homo sapiens, UniProt P52333); assay: Kinobeads assay, JAK3; assay type: binding; settings: mixed Molt4/Ramos cell lysate, dot blot detection
T2 construct: endogenous in cells; host or cells: Mixed Molt4/Ramos lysate (1:2)
T2 sequence (P52333 1-1124): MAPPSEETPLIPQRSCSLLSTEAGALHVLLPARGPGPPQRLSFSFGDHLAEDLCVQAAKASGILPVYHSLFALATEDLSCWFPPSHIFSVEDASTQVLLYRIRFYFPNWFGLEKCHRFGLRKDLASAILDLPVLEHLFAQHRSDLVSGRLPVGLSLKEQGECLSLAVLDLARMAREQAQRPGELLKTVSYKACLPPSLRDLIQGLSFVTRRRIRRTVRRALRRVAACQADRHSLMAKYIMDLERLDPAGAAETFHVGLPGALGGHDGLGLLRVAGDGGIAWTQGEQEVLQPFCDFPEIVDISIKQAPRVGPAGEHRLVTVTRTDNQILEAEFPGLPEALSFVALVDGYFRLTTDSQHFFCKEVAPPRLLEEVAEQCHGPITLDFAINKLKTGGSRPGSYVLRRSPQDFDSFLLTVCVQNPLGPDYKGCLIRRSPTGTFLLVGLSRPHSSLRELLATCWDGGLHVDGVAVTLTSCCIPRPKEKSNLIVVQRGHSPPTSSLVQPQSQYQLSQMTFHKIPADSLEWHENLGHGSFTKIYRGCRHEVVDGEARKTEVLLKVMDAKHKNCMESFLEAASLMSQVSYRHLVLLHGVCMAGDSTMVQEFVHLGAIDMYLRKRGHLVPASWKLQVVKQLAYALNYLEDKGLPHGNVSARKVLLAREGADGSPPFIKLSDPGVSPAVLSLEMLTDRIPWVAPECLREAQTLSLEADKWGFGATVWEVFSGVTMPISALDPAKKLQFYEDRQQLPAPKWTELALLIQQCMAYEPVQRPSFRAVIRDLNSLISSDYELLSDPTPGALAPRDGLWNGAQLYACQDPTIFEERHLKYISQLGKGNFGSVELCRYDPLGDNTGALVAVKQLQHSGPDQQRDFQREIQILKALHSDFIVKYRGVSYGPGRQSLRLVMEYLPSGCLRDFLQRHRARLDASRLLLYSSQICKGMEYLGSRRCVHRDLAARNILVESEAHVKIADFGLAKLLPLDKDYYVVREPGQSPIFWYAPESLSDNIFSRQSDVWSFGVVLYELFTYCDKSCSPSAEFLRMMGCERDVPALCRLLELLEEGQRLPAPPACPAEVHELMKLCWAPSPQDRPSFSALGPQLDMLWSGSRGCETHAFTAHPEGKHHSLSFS
Procedure, shortened: as §1

T1 sequence (O60674 whole entry): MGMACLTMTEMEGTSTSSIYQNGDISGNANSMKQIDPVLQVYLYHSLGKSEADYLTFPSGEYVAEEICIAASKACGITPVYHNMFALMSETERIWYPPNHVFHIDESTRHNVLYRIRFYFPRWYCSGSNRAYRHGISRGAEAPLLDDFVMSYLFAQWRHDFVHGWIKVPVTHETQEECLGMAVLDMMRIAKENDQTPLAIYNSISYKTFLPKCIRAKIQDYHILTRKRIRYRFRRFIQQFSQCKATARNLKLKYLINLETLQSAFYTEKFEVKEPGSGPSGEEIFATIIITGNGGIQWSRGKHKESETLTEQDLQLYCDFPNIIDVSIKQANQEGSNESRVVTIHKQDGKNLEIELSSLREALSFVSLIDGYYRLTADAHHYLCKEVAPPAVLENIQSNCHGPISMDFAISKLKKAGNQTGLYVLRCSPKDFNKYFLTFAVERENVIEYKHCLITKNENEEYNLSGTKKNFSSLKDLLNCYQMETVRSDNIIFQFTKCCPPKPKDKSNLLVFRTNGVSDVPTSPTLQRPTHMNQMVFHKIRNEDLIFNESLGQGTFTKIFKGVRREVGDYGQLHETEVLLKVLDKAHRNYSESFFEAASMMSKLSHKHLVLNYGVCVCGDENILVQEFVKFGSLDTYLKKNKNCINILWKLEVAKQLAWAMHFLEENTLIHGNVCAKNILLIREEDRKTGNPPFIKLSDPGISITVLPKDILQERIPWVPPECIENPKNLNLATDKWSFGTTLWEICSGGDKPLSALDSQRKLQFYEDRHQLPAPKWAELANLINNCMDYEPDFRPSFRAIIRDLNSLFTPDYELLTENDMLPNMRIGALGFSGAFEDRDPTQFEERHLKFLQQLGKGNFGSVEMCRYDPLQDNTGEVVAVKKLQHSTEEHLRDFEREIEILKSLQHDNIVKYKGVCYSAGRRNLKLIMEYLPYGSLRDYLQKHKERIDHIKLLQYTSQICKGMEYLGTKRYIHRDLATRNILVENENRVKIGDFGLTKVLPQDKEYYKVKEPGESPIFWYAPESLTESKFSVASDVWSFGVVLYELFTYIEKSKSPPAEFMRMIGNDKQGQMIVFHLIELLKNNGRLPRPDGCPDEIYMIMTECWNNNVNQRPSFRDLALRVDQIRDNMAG

Row | SMILES | pIC50 [1] | pIC50 [2]
1 | Cn1cc(Nc2ncc3cnn(-c4ccc(Cl)cc4)c3n2)cn1 [Example 57, 1-(4-Chlorophenyl)-N-(1-methyl-1H-pyrazol-4-yl)-1H-pyrazolo[3,4-d]pyrimidin-6-amine] | ≤ 5.00 | 6.00 to 7.00
2 | COc1cc(-n2ncc3cnc(Nc4cnn(C)c4)nc32)ccc1F [Example 58, 1-(4-Fluoro-3-methoxyphenyl)-N-(1-methyl-1H-pyrazol-4-yl)-1H-pyrazolo[3,4-d]pyrimidin-6-amine] | ≤ 5.00 | 6.00 to 7.00
3 | Cc1cc(-n2ncc3cnc(Nc4cnn(C)c4)nc32)ccc1F [Example 60, 1-(4-fluoro-3-methylphenyl)-N-(1-methyl-1H-pyrazol-4-yl)-1H-pyrazolo[3,4-d]pyrimidin-6-amine] | 5.00 to 6.00 | 6.00 to 7.00
4 | Cn1cc(Nc2ncc3cnn(-c4ccc(S(C)(=O)=O)cc4)c3n2)cn1 [Example 61, N-(1-methyl-1H-pyrazol-4-yl)-1-(4-(methylsulfonyl)phenyl)-1H-pyrazolo[3,4-d]pyrimidin-6-amine] | 5.00 to 6.00 | 6.00 to 7.00
5 | Cn1cc(Nc2ncc3cnn(Cc4c(F)cccc4Cl)c3n2)cn1 [Example 63, 1-(2-Chloro-6-fluorobenzyl)-N-(1-methyl-1H-pyrazol-4-yl)-1H-pyrazolo[3,4-d]pyrimidin-6-amine] | 6.00 to 7.00 | > 7.00
6 | Cn1cc(Nc2ncc3cnn(Cc4cc(Cl)ccc4F)c3n2)cn1 [Example 64] | 6.00 to 7.00 | > 7.00
7 | Cn1cc(Nc2ncc3cnn(Cc4ccccc4C(F)(F)F)c3n2)cn1 [Example 65, N-(1-Methyl-1H-pyrazol-4-yl)-1-(2-(trifluoromethyl)benzyl)-1H-pyrazolo[3,4-d]pyrimidin-6-amine] | 5.00 to 6.00 | > 7.00
8 | Cn1cc(Nc2ncc3cnn(Cc4cccc(F)c4)c3n2)cn1 [Example 67, 1-(3-Fluorobenzyl)-N-(1-methyl-1H-pyrazol-4-yl)-1H-pyrazolo[3,4-d]pyrimidin-6-amine] | 6.00 to 7.00 | > 7.00
9 | Cn1cc(Nc2ncc3cnn(Cc4cccc(C#N)c4)c3n2)cn1 [Example 68, 3-((6-((1-Methyl-1H-pyrazol-4-yl)amino)-1H-pyrazolo[3,4-d]pyrimidin-1-yl)methyl)benzonitrile] | 5.00 to 6.00 | > 7.00
10 | COc1cccc(Cn2ncc3cnc(Nc4cnn(C)c4)nc32)c1 [Example 69, 1-(3-Methoxybenzyl)-N-(1-methyl-1H-pyrazol-4-yl)-1H-pyrazolo[3,4-d]pyrimidin-6-amine] | 5.00 to 6.00 | > 7.00
11 | Cn1cc(Nc2ncc3cnn(Cc4cccc(Cl)c4)c3n2)cn1 [Example 70, 1-(3-Chlorobenzyl)-N-(1-methyl-1H-pyrazol-4-yl)-1H-pyrazolo[3,4-d]pyrimidin-6-amine] | 6.00 to 7.00 | > 7.00
12 | Cn1cc(Nc2ncc3cnn(Cc4cccc(Cl)c4F)c3n2)cn1 [Example 72, 1-(3-Chloro-2-fluorobenzyl)-N-(1-methyl-1H-pyrazol-4-yl)-1H-pyrazolo[3,4-d]pyrimidin-6-amine] | 5.00 to 6.00 | > 7.00
13 | Cn1cc(Nc2ncc3cnn(-c4ccccc4)c3n2)cn1 [Example 74, N-(1-Methyl-1H-pyrazol-4-yl)-1-phenyl-1H-pyrazolo[3,4-d]pyrimidin-6-amine] | 5.00 to 6.00 | 6.00 to 7.00
14 | Cn1cc(Nc2ncc3cnn(Cc4ccccc4NS(C)(=O)=O)c3n2)cn1 [Example 75, N-(2-((6-((1-Methyl-1H-pyrazol-4-yl)amino)-1H-pyrazolo[3,4-d]pyrimidin-1-yl)methyl)phenyl)methanesulfonamide] | 6.00 to 7.00 | > 7.00
15 | Cn1cc(Nc2ncc3cnn(Cc4cccc(C(N)=O)c4)c3n2)cn1 [Example 80, 3-((6-((1-Methyl-1H-pyrazol-4-yl)amino)-1H-pyrazolo[3,4-d]pyrimidin-1-yl)methyl)benzamide] | 5.00 to 6.00 | > 7.00
16 | Cn1cc(Nc2ncc3cnn(CCc4ccc(F)cc4)c3n2)cn1 [Example 82, 1-(4-Fluorophenethyl)-N-(1-methyl-1H-pyrazol-4-yl)-1H-pyrazolo[3,4-d]pyrimidin-6-amine] | 5.00 to 6.00 | 6.00 to 7.00
17 | Cc1ccccc1Cn1ncc2cnc(Nc3cnn(C)c3)nc21 [Example 84, N-(1-Methyl-1H-pyrazol-4-yl)-1-(2-methylbenzyl)-1H-pyrazolo[3,4-d]pyrimidin-6-amine] | 5.00 to 6.00 | > 7.00
18 | Cn1cc(Nc2ncc3cnn(Cc4ccccc4OC(F)(F)F)c3n2)cn1 [Example 85, N-(1-Methyl-1H-pyrazol-4-yl)-1-(2-(trifluoromethoxy)benzyl)-1H-pyrazolo[3,4-d]pyrimidin-6-amine] | 5.00 to 6.00 | > 7.00
19 | Cn1cc(Nc2ncc3cnn(Cc4cccc(OC(F)(F)F)c4)c3n2)cn1 [Example 86, N-(1-Methyl-1H-pyrazol-4-yl)-1-(3-(trifluoromethoxy)benzyl)-1H-pyrazolo[3,4-d]pyrimidin-6-amine] | ≤ 5.00 | 6.00 to 7.00
20 | COc1ccccc1Cn1ncc2cnc(Nc3cnn(C)c3)nc21 [Example 87, 1-(2-Methoxybenzyl)-N-(1-methyl-1H-pyrazol-4-yl)-1H-pyrazolo[3,4-d]pyrimidin-6-amine] | 5.00 to 6.00 | > 7.00

The next lines start with the values.

Row | pIC50 [1] | pIC50 [2] | SMILES
21 | > 7.00 | > 7.00 | Cn1cc(Nc2ncc3cnn(Cc4cc(F)ccc4Cl)c3n2)cn1 [Example 62, 1-(2-Chloro-5-fluorobenzyl)-N-(1-methyl-1H-pyrazol-4-yl)-1H-pyrazolo[3,4-d]pyrimidin-6-amine]
22 | ≤ 5.00 | 6.00 to 7.00 | Cn1cc(Nc2ncc3cnn(Cc4cccc(C(F)(F)F)c4)c3n2)cn1 [Example 66, N-(1-Methyl-1H-pyrazol-4-yl)-1-(3-(trifluoromethyl)benzyl)-1H-pyrazolo[3,4-d]pyrimidin-6-amine]
23 | ≤ 5.00 | 6.00 to 7.00 | COc1nn(CC(F)F)cc1Nc1ncc2cnn(-c3ccc(S(N)(=O)=O)cc3)c2n1 [Example 71, 4-(6-((1-(2,2-Difluoroethyl)-3-methoxy-1H-pyrazol-4-yl)amino)-1H-pyrazolo[3,4-d]pyrimidin-1-yl)benzenesulfonamide]
24 | 6.00 to 7.00 | > 7.00 | OCCn1cc(Nc2ncc3cnn(Cc4c(F)cccc4F)c3n2)cn1 [Example 73, 2-(4-((1-(2,6-Difluorobenzyl)-1H-pyrazolo[3,4-d]pyrimidin-6-yl)amino)-1H-pyrazol-1-yl)ethanol]
25 | 5.00 to 6.00 | > 7.00 | Cn1cc(Nc2ncc3cnn(Cc4ccccc4)c3n2)cn1 [Example 76, 1-Benzyl-N-(1-methyl-1H-pyrazol-4-yl)-1H-pyrazolo[3,4-d]pyrimidin-6-amine]
26 | ≤ 5.00 | 6.00 to 7.00 | Cn1cc(Nc2ncc3cnn(CCc4ccccc4F)c3n2)cn1 [Example 77, 1-(2-Fluorophenethyl)-N-(1-methyl-1H-pyrazol-4-yl)-1H-pyrazolo[3,4-d]pyrimidin-6-amine]
27 | 5.00 to 6.00 | 6.00 to 7.00 | Cn1cc(Nc2ncc3cnn(Cc4ccc(F)c(F)c4)c3n2)cn1 [Example 78, 1-(3,4-Difluorobenzyl)-N-(1-methyl-1H-pyrazol-4-yl)-1H-pyrazolo[3,4-d]pyrimidin-6-amine]
28 | 6.00 to 7.00 | > 7.00 | Cn1cc(Nc2ncc3cnn(Cc4cc(F)cc(F)c4)c3n2)cn1 [Example 79, 1-(3,5-Difluorobenzyl)-N-(1-methyl-1H-pyrazol-4-yl)-1H-pyrazolo[3,4-d]pyrimidin-6-amine]
29 | 5.00 to 6.00 | 6.00 to 7.00 | Cn1cc(Nc2ncc3cnn(CCc4cccc(F)c4)c3n2)cn1 [Example 81, 1-(3-Fluorophenethyl)-N-(1-methyl-1H-pyrazol-4-yl)-1H-pyrazolo[3,4-d]pyrimidin-6-amine]
30 | 5.00 to 6.00 | > 7.00 | Cc1cccc(Cn2ncc3cnc(Nc4cnn(C)c4)nc32)c1 [Example 83, N-(1-Methyl-1H-pyrazol-4-yl)-1-(3-methylbenzyl)-1H-pyrazolo[3,4-d]pyrimidin-6-amine]
31 | 5.00 to 6.00 | > 7.00 | Fc1ccccc1Cn1ncc2cnc(Nc3cn[nH]c3)nc21 [Example 88, 1-(2-Fluorobenzyl)-N-(1H-pyrazol-4-yl)-1H-pyrazolo[3,4-d]pyrimidin-6-amine]
